PubChem BioAssay AID652 (University of Pittsburgh Molecular Library Screening Center, 2007)

Molecular target: Gag-Pol polyprotein (Human immunodeficiency virus type 1 group M subtype B (isolate HXB2)) (UniProt P04585)
Test: concentration-response of HIV-1 RNase H blockers – biochemical, probe assessment, dose response (AID 652)
Conditions: HIV-1 RT RNase H enzymatic assay; for inhibition: at 50 µM, stronger effect = higher value

SMILES: O=C(Cn1c(=O)oc2cc(S(=O)(=O)N3CCCC3)ccc21)NC1CCCc2ccccc21 (stereo not drawn)
- inhibition: 58.8%

SMILES: O=C(Nc1ccc(N2CCOCC2)cc1)c1ccc2nc(-c3ccco3)c(-c3ccco3)nc2c1
- inhibition: 93.4%

SMILES: CC1CC(C)(C)NC(=S)S1 (stereo not drawn)
- inhibition: 66%

SMILES: Cc1cc(C)n2c(=S)[nH]nc2n1
- inhibition: 71.1%

SMILES: c1ccc2c(c1)OCC(c1nnc3sc(-c4ccc5c(c4)OCO5)nn13)O2 (stereo not drawn)
- inhibition: 97.2%

SMILES: N#CC1=C(N)SC(N)=C(C#N)C1c1ccnc2ccccc12
- IC50: 13.7 µM
- inhibition: 70.4%

SMILES: Cc1noc(C)c1CSc1nc2cc(S(=O)(=O)N3CCOCC3)ccc2o1
- inhibition: 88.3%

SMILES: c1ccc(Cc2nn3c(COc4ccccc4)nnc3s2)cc1
- inhibition: 86.8%

SMILES: O=C(O)/C=C/c1ccc(O)c(O)c1
- inhibition: 52.1%

SMILES: C=CCOC(=O)C1=C(C)NC(SCC(=O)Nc2ccc(C)c(Cl)c2)=C(C#N)C1c1ccco1 (stereo not drawn)
- IC50: 4.25 µM
- inhibition: 98.7%

SMILES: Cc1ccc(-n2c(N)c(C(N)=O)sc2=S)cc1
- inhibition: 83.3%

SMILES: CCOC(=O)c1c(NC(=O)c2cc(C3CC3)on2)sc2c1CCCC2
- inhibition: 97.1%

SMILES: Nc1c(S(=O)(=O)c2cccc(Cl)c2)c2nc3ccccc3nc2n1/N=C/c1ccc(O)c(O)c1
- IC50: 0.266 µM
- inhibition: 96.3%

SMILES: Cc1ccc(-c2cc(C(F)F)n3ncc(C(=O)NCc4ccco4)c3n2)cc1
- inhibition: 93%

SMILES: Cc1cccc(-n2c(N)c(C(=O)N3CCN(C)CC3)sc2=S)c1
- inhibition: 41.7%

SMILES: COc1cc(OC)c(C2CC(=O)N3CN(C)CSC3=C2C#N)cc1OC (stereo not drawn)
- inhibition: 76.1%

SMILES: CCOC(=O)N1CC=C2C(C#N)=C(N)C(C#N)(C#N)[C@H](c3ccc(OC(C)C)c(OCC)c3)[C@H]2C1
- IC50: 21.7 µM
- inhibition: 98.5%

SMILES: Cc1ccc(-n2c(N)c(C(=O)N3CCCCC3)sc2=S)cc1
- inhibition: 79.5%

SMILES: CC(C)Sc1nc(-c2cccs2)nc2c1c(=O)n(C)c(=O)n2C
- IC50: 5.42 µM
- inhibition: 98.9%

SMILES: Cc1ccc(-n2c(N)c(C(=O)N3CCOCC3)sc2=S)cc1
- inhibition: 75.9%

SMILES: CC(=O)c1cccc(NC(=O)c2cc(-c3ccc(C)cc3)on2)c1
- inhibition: 95.8%

SMILES: C=CCSc1nc2c(c(=O)[nH]c(=O)n2C)n1C(C)C
- inhibition: 60.6%

SMILES: Fc1ccccc1CSc1nc2ncccc2[nH]1
- IC50: 9.72 µM
- inhibition: 57.7%

SMILES: COc1ccc2ccccc2c1C1CC(=O)N2CN(C3CCCCC3)CSC2=C1C#N (stereo not drawn)
- inhibition: 92.3%

SMILES: Cn1ccnc1P(=S)(c1nccn1C)N1CCOCC1
- inhibition: 60%

SMILES: CCN(Cc1ccccc1)S(=O)(=O)c1ccc(C(=O)Nc2nnc(-c3ccccc3OC)o2)cc1
- inhibition: 95.8%

SMILES: CN(c1ccccc1)c1ccc(/C=c2\s/c(=C(/C#N)C(=O)C(C)(C)C)n(Cc3ccco3)c2=O)cc1
- inhibition: 92.9%

SMILES: c1cncc(-c2nn3c(Cn4cnc5ccccc54)nnc3s2)c1
- inhibition: 85.4%

SMILES: Nc1ccc(-c2nnc(-c3ccc(-c4ccccc4)cc3)o2)cc1
- inhibition: 101%

SMILES: N#Cc1c(-c2cccnc2)c2c([nH]c1=S)CCCC2
- IC50: 10.2 µM
- inhibition: 77.9%

SMILES: Nc1sc2c(c1C(=O)NC1CCS(=O)(=O)C1)CCC2 (stereo not drawn)
- inhibition: 74.5%

SMILES: O=C1C=Cc2ccccc2C1=O
- IC50: 2.64 µM
- inhibition: 97.7%

SMILES: COc1cc(C2CC(=O)N3CN(c4ccccc4C)CSC3=C2C#N)cc(OC)c1OC (stereo not drawn)
- inhibition: 100%

SMILES: N#Cc1c(N)nc(SCC(=O)NC2CCCCC2)c(C#N)c1-c1ccc(Cl)cc1
- inhibition: 64.2%

SMILES: CCCCCn1c(=O)c(C(=O)NCc2ccncc2)c(O)c2ccccc21
- inhibition: 96%

SMILES: c1ccc2[nH]c(SN3CCOCC3)nc2c1
- inhibition: 74.2%

SMILES: C/C=C/CSc1nc2c(c(=O)[nH]c(=O)n2C)n1Cc1ccc(C)cc1
- IC50: 11.2 µM
- inhibition: 101%

SMILES: C=CCSc1nc2c(c(=O)[nH]c(=O)n2C)n1CC
- inhibition: 72.8%

SMILES: CC(C)(C)c1ccc(-c2nnc3sc(-c4ccncc4)nn23)cc1
- inhibition: 96.3%
